Laboratory results taken from the supplement of paper PMC10307832.

Key:
Test in all cases: relative viability (nuclei count vs DMSO), 5 days (fraction); higher = more cells survive
[1] = compound: CC1=C(CC(=O)O)c2cc(F)ccc2/C1=C\c1ccc([S+](C)[O-])cc1 [Sulindac] + Nc1nc2[nH]cc(CCc3ccc(C(=O)N[C@@H](CCC(=O)O)C(=O)O)cc3)c2c(=O)[nH]1 [Pemetrexed] (partner 0.2 µM)
In short: (§1)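 The day after seeding in 1536-well plates, lung cancer cell lines were treated by pin tool with a single drug, or with a fixed anchor-drug dose together with five library-drug doses (not always all listed) in √10 steps. After 5 days, a combined fix-and-stain solution (final 0.05% Triton X-100, 1% formaldehyde, 1 ug/ml Hoechst) was added. Nuclei counted on 4× images gave relative viability as treated counts over vehicle counts, reported as the median of duplicate plates.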

[2] = compound: CC1=C(CC(=O)O)c2cc(F)ccc2/C1=C\c1ccc([S+](C)[O-])cc1 [Sulindac] + Nc1ncn([C@H]2C[C@H](O)[C@@H](CO)O2)c(=O)n1 [Decitabine] (partner 2 µM)
In short: as §1

[3] = compound: CC1=C(CC(=O)O)c2cc(F)ccc2/C1=C\c1ccc([S+](C)[O-])cc1 [Sulindac] + NC(=O)Nc1cc(-c2cccc(F)c2)sc1C(=O)N[C@H]1CCCNC1 [AZD7762] (partner 0.2 µM)
In short: as §1

[4] = compound: O=c1[nH]cc(F)c(=O)[nH]1 [5-Fluorouracil] + CC(=O)Nc1cccc(-n2c(=O)n(C3CC3)c(=O)c3c(Nc4ccc(I)cc4F)n(C)c(=O)c(C)c32)c1 [Trametinib] (partner 0.02 µM)
In short: as §1

| Cell Line | relative viability ([1]; first compound 0.08 µM) | relative viability ([1]; first compound 0.253 µM) | relative viability ([1]; first compound 0.8 µM) | relative viability ([1]; first compound 2.53 µM) | relative viability ([1]; first compound 8 µM) | relative viability ([2]; first compound 0.08 µM) | relative viability ([2]; first compound 0.253 µM) | relative viability ([2]; first compound 0.8 µM) | relative viability ([2]; first compound 2.53 µM) | relative viability ([2]; first compound 8 µM) | relative viability ([3]; first compound 0.08 µM) | relative viability ([3]; first compound 0.253 µM) | relative viability ([3]; first compound 0.8 µM) | relative viability ([3]; first compound 2.53 µM) | relative viability ([3]; first compound 8 µM) | relative viability ([4]; first compound 0.02 µM) | relative viability ([4]; first compound 0.2 µM) | relative viability ([4]; first compound 0.6325 µM) | relative viability ([4]; first compound 2 µM) |
| --- | --- | --- | --- | --- | --- | --- | --- | --- | --- | --- | --- | --- | --- | --- | --- | --- | --- | --- | --- |
| NCI-H322M | 0.646 | 0.642 | 0.597 | 0.552 | 0.666 | 0.599 | 0.614 | 0.657 | 0.631 | 0.699 | 0.469 | 0.42 | 0.573 | 0.575 | 0.546 | 0.532 | 0.664 | 0.463 | 0.456 |
| NCI-H358 | 0.183 | 0.157 | 0.17 | 0.151 | 0.182 | 0.235 | 0.2 | 0.196 | 0.186 | 0.239 | 0.45 | 0.517 |  | 0.427 | 0.651 | 0.17 | 0.124 | 0.123 | 0.137 |
| NCI-H441 | 0.251 | 0.255 | 0.286 | 0.244 | 0.253 | 0.255 | 0.232 | 0.252 | 0.245 | 0.264 | 1.24 | 1.03 | 0.798 | 1.18 | 1.38 | 0.567 | 0.499 | 0.402 | 0.38 |
| NCI-H460 | 0.0577 | 0.0612 | 0.0559 | 0.0599 | 0.0635 | 0.745 | 0.536 | 0.438 | 0.435 | 0.601 | 0.984 | 0.639 | 0.812 | 0.64 | 0.846 | 0.219 | 0.144 | 0.0819 | 0.0387 |
| NCI-H522 | 0.859 | 0.985 | 1.05 | 0.88 | 0.96 | 0.643 | 0.718 | 0.652 | 0.667 | 0.687 | 0.753 | 0.921 | 0.962 | 0.693 | 0.657 | 0.76 | 0.681 | 0.724 | 0.638 |
| NCI-H596 | 0.441 | 0.433 |  | 0.445 | 0.544 | 0.894 | 0.982 |  | 1.2 | 1.1 | 1.06 | 1.16 |  | 1.23 | 1.27 | 0.845 | 0.649 | 0.632 | 0.479 |
| NCI-H647 | 0.212 | 0.165 | 0.169 | 0.182 | 0.208 | 0.392 | 0.51 | 0.361 | 0.442 | 0.426 | 0.592 | 0.5 | 0.362 | 0.575 | 0.488 | 0.444 | 0.479 | 0.406 | 0.393 |
| NCI-H650 | 1 | 0.88 | 0.845 | 0.932 | 1.09 | 0.33 | 0.325 | 0.341 | 0.284 | 0.339 | 1.03 | 0.899 | 0.766 | 0.914 | 0.978 | 0.914 | 0.701 | 0.407 | 0.341 |
| NCI-H838 | 0.248 | 0.255 | 0.233 | 0.24 | 0.258 | 0.497 | 0.476 | 0.425 | 0.45 | 0.507 | 1.05 | 0.976 | 0.843 | 0.886 | 1.04 | 0.482 | 0.579 | 0.373 | 0.246 |
| NCI-H1355 | 1.02 | 1.05 | 0.965 | 1.02 | 1.13 | 0.325 | 0.343 | 0.366 | 0.338 | 0.366 | 0.842 | 0.748 | 0.71 | 0.765 | 0.858 | 0.443 | 0.387 | 0.265 | 0.242 |
| NCI-H1395 | 0.931 | 1.02 | 0.828 | 0.855 | 1.12 | 0.726 | 0.689 | 0.664 | 0.659 | 0.832 | 0.387 | 0.378 | 0.4 | 0.401 | 0.401 | 1.03 | 0.987 | 1.12 | 1.11 |
| NCI-H1437 | 0.375 | 0.321 | 0.326 | 0.315 | 0.413 | 0.667 | 0.619 | 0.547 | 0.591 | 0.568 | 1.18 | 1.12 | 1.1 | 1.14 | 1.11 | 0.364 | 0.247 | 0.22 | 0.18 |
| NCI-H1648 | 0.889 | 0.781 |  | 0.569 | 0.787 | 0.641 | 0.558 |  | 0.462 | 0.452 | 0.682 | 0.746 |  | 0.7 | 0.768 | 0.467 | 0.405 | 0.466 | 0.306 |
| NCI-H1651 | 0.766 | 0.626 | 0.581 | 0.569 | 0.613 | 0.748 | 0.702 | 0.578 | 0.568 | 0.617 | 0.516 | 0.508 | 0.318 | 0.492 | 0.506 | 0.879 | 0.684 | 0.325 | 0.267 |
| NCI-H1666 | 0.924 | 0.852 | 0.818 | 0.858 | 0.878 | 0.679 | 0.73 | 0.668 | 0.696 | 0.713 | 0.869 | 0.878 | 0.776 | 0.847 | 0.945 | 0.891 | 0.714 | 0.601 | 0.56 |
| NCI-H1734 | 0.477 | 0.421 | 0.439 | 0.44 | 0.452 | 0.524 | 0.522 | 0.435 | 0.523 | 0.496 | 0.646 | 0.587 | 0.519 | 0.621 | 0.73 | 0.709 | 0.682 | 0.584 | 0.415 |
| NCI-H1755 | 0.421 | 0.448 | 0.631 | 0.444 | 0.462 | 0.798 | 0.634 | 0.705 | 0.785 | 0.833 | 0.424 | 0.429 | 0.628 | 0.456 | 0.498 | 0.796 | 0.688 | 0.417 | 0.37 |
